Assays:
[1] = biological target: T1, recombinant TEAD1 (residues 194-411) (Homo sapiens, UniProt P28347); assay: Saturation transfer difference (STD) NMR binding to TEAD1; conditions: 2 mM CPD3.1, approximately 20 μM TEAD1
T1 construct: TEAD1 protein (residues 194–411) was prepared by solution cleavage of the GST tag; GST (N, cleaved yes); made in house; host or cells: SoluBL21 Escherichia coli
Method: Figure 6 Saturation transfer difference (STD) NMR analysis of compound 3.1 binding to TEAD1. Saturation-Transfer Difference (STD) NMR spectra showing the binding of CPD3.1 to recombinant TEAD1. (A) reference 1H NMR spectra of a mixture of CPD3.1 and TEAD1. (B) and (C) show the STD spectra of CPD3.1 in the absence and presence of TEAD1. The asterisk indicates buffer components or impurities in the sample. The three spectra were recorded in PBS made up in 40% H2O/60% D2O acquired at 700 MHz. The concentration of CPD3.1 was 2 mM, whereas the final concentration of TEAD1 was approximately 20 μM.
Binding of compounds to human TEAD was performed using STD NMR analysis. Briefly, TEAD1 protein (residues 194–411) was prepared by solution cleavage of the GST tag from recombinant GST–TEAD1 (194–411). GST–TEAD1 protein was eluted from glutathione beads by 40 mM reduced glutathione. GST tag was removed by incubation with PreScission protease (Sigma-Aldrich) at 4 °C for 18 h. Glutathione was removed by dialysis against 1000 volumes of 1× PBS at 4 °C for 4 h. Free GST protein was removed by incubation with glutathione resin. All NMR spectroscopy experiments were performed on a Bruker Avance III HD 700 MHz spectrometer equipped with a 1.7 mm inverse triple-resonance microcryocoil probe. NMR samples were prepared in 40 μL with PBS pH 7.4 in 60% D2O (uncorrected for D2O). […]

[2] = biological target: T2, TEAD3 (Homo sapiens, UniProt Q99594); assay: GAL4-TEAD3 fusion / 5xGAL4-secNLUC reporter in HeLa cells; type: cell-based; conditions: 100 μM, 6 h
T2 construct: #18881 (FLAG-YAP); host or cells: HeLa
From the text: TEAD proteins (TEAD1–4) display a high degree of sequence conservation in residues that create the hydrophobic pocket that is essential for YAP binding.[51] YAP proteins also display a high degree of conservation in residues that interact with this pocket.[51] We therefore tested whether CPD3.1 was able to inhibit YAP-induced activity of TEAD1, TEAD2, TEAD3, and TEAD4. To quantify the effect of CPD3.1 on the activity of each individual TEAD paralog, while excluding interference from endogenously expressed TEAD1–4 proteins, we expressed each TEAD paralog (TEAD1–4) fused to the yeast GAL4 DNA-binding domain. Cells were transfected with the GAL4–TEAD expression vector together with a secreted nanoluciferase reporter gene vector under control of a promoter containing five GAL4 DNA-binding elements. This system allows us to study the effect of CPD3.1 on the activity of each individual TEAD protein in isolation, without interference from endogenously expressed transcription factors. In addition, the cells were co-transfected with a YAP expression vector to activate the GAL4–TEAD fusion-dependent transcription (see Supplement Figure 9). Basal activities of TEAD1, TEAD2, TEAD3, and TEAD4 were inhibited by CPD3.1 (Figure 7A–D). […]
Figure 7 Compound 3.1 inhibits TEAD1, TEAD2, TEAD3, and TEAD4 activities. […] Secreted nano-luciferase activity was quantified in the conditioned media. […]

T2 sequence (Q99594 whole entry, the tested form may be a part): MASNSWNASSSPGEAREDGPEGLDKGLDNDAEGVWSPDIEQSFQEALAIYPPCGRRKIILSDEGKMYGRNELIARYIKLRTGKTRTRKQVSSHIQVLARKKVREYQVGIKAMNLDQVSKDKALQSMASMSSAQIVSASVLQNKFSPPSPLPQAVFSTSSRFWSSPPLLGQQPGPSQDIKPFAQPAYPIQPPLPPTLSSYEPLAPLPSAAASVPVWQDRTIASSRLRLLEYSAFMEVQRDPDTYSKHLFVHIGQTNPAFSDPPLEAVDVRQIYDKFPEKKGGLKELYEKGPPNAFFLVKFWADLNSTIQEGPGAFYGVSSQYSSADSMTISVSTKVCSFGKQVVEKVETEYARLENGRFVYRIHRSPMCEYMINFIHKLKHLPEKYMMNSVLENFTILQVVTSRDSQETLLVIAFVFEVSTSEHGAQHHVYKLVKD
T1 sequence (P28347 209-426): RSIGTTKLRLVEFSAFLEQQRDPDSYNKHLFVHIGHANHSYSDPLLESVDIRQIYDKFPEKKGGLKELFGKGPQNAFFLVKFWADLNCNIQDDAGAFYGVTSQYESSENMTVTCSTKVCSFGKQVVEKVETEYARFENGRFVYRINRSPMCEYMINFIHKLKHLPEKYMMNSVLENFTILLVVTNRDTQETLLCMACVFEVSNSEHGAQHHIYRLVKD

In the case of `Cc1ccc2c(c1)c1c3n2CCNC3CCC1` (stereo not drawn) [CPD3.1], the “binding to purified recombinant TEAD protein (STD NMR)” value [1] is reported as “confirmed”, the “basal activity of GAL4-TEAD3” value [2] is reported as “inhibited” and the “YAP-stimulated activity of GAL4-TEAD3” value ([2]; YAP overexpression) is reported as “significantly inhibited”.
